In brackets after ≈: the same amount, converted by molar mass. Like-named read-outs stand apart in the source and are kept apart here.
Tests used:
[1] = test system: Bacillus subtilis ATCC 6633; test: Broth microdilution MIC/MBC; conditions: ATCC6633
[2] = test system: Staphylococcus aureus ATCC 25923; test: Broth microdilution MIC/MBC; conditions: Staphylococcus aureus, ATCC25923
[3] = test system: Bacillus cereus ATCC 10876; test: Broth microdilution MIC/MBC; conditions: Bacillus cereus, ATCC10876
[4] = test system: Staphylococcus epidermidis ATCC 12228; test: Broth microdilution MIC/MBC; conditions: ATCC12228
[5] = test system: Micrococcus luteus ATCC 10240; test: Broth microdilution MIC/MBC; conditions: Micrococcus luteus, ATCC10240
[6] = test system: Candida parapsilosis ATCC 22019; test: Broth microdilution MIC/MFC; type: cell-based
Text: (§1) Procedures of in vitro antimicrobial assays are described in Supplementary Materials.
(§2) 2. Microbiology – in vitro antimicrobial activity assays […]
(§3) using the broth microdilution method according to the European Committee on Antimicrobial Susceptibility Testing (EUCAST) and Clinical and Laboratory Standards Institute guidelines against a panel of reference and clinical or saprophytic strains of mi croorganisms, including the Gram-positive bacteria: Staphylococcus aureus ATCC 43300 (Methi-cillin Resistant S. aureus – MRSA), Staphylococcus aureus ATCC 29213 (Methicillin Susceptible S. aureus – MSSA), Staph-ylococcus epidermidis ATCC 12228, Micrococcus luteus ATCC 10240, Bacillus subtilis ATCC 6633 and Bacillus cereus ATCC 10876), Gram-negative bacteria: Bordetella bronchiseptica ATCC 4617, Escherichia coli ATCC 25922, Klebsiella pneumoniae ATCC 13883, Proteus mirabilis ATCC 12453, Salmonella typhimurium ATCC 14028 and Pseudomonas aeruginosa ATCC 9027, and fungi belonging to yeasts: Candida albicans ATCC 10231, Candida albicans ATCC 2091, Candida parapsilosis ATCC 22019, Candida glabrata ATCC 90030 and Candida krusei ATCC 14243. The microorganisms belonging to ATCC originated from American Type Culture Collection, routinely used for the evaluation of antimicrobials. All the used microbial cultures were first subcultured on nutrient agar or Sabouraud agar at 35°C for 18-24 h or 30°C for 24-48 h for bacteria […]
(§4) The surface of Mueller-Hinton agar (for bacteria) and RPMI 1640 with MOPS (for fungi) were inoculated with the suspensions of bacterial or fungal species. Microbial suspensions were prepared in sterile saline with an optical density of McFarland standard scale 0.5. The samples containing the compounds were dissolved in dimethyl sulfoxide (DMSO).
(§5) Furthermore, the bacterial and fungal suspensions put onto the Petri dishes with solid media containing 2 mg/mL of the tested compounds followed were incubated at 37°C for 24h and 30°C for 48h for bacteria and fungi, respectively.
(§6) The inhibition of microbial growth was estimated comparing with a control culture prepared without any tested sam- […]
(§7) antifungal compounds, respectively.
(§8) Subsequently, MIC (Minimal Inhibitory Concentration) of the compounds was examined by the microdilution broth method, using their two-fold dilutions in Mueller-Hinton broth (for bacteria) and RPMI 1640 broth with MOPS (for fungi) prepared in the 96-well polystyrene plates. The final concentrations of the compounds ranged from 1000 to 0.488 µg/mL. Microbial suspensions were prepared in 0.85% NaCl with an optical density of 0.5 McFarland standard. Next each bacterial or fungal suspension was added per each well containing broth and various concentrations of the exam-ined compounds. After incubation, the MIC was assessed spectrophotometrically as the lowest concentration of the […]
(§9) Appropriate DMSO, growth and sterile controls were carried out. The medium with no tested substances was used as a control The MBC (Minimal Bactericidal Concentration) and MFC (Minimal Fungicidal Concentration) are defined as the lowest concentration of the compounds that is required to kill a particular bacterial or fungal species. The MBC/MFC was determined by removing the culture used for the MIC determination from each well and spotted onto the appro-priate agar medium. The plates were incubated under appropriate conditions for bacteria and fungi. The lowest com-pounds concentration with no visible growth observed was assessed as a bactericidal/fungicidal concentration. All the experiments were repeated three times and the representative data are presented.
(§10) 1. European Committee for Antimicrobial Susceptibility Testing (EUCAST) Determination of minimum inhibitory con-centrations (MICs) of antibacterial agents by broth dilution. EUCAST discussion document E. Dis 5.1. Clin. Microbiol.
(§11) 2. Clinical and Laboratory Standards Institute. Reference method for broth dilution antifungal susceptibility testing of […]

[7] = test system: Candida glabrata ATCC 90030; test: Broth microdilution MIC/MFC; type: cell-based
Text: as §1, §2, §3, §4, §5, §6, §7, §8, §9, §10, §11

[8] = test system: Candida albicans ATCC 10231; test: Broth microdilution MIC/MFC; type: cell-based
Text: as §1, §2, §3, §4, §5, §6, §7, §8, §9, §10, §11

[9] = test system: Candida krusei ATCC 14243; test: Broth microdilution MIC/MFC; type: cell-based
Text: as §1, §2, §3, §4, §5, §6, §7, §8, §9, §10, §11

[10] = test system: Candida albicans ATCC 2091; test: Broth microdilution MIC/MFC; type: cell-based
Text: as §1, §2, §3, §4, §5, §6, §7, §8, §9, §10, §11

[11] = test system: Staphylococcus aureus ATCC 43300; test: Broth microdilution MIC/MBC; conditions: ATCC43300 / MRSA
[12] = test system: Candida spp.; test: Broth microdilution, summary over reference yeasts; type: cell-based; conditions: reference yeasts from Candida spp.
Text: as §1, §2, §3, §4, §5, §6, §7, §8, §9, §10, §11

[13] = test system: Staphylococcus aureus ATCC 29213; test: Broth microdilution MIC/MBC; conditions: ATCC29213
[14] = test system: Gram-positive bacteria; test: Broth microdilution, summary over reference Gram-positive bacteria; type: cell-based; conditions: reference Gram-positive bacteria / studied bacteria
Text: as §1, §2, §3, §4, §5, §6, §7, §8, §9, §10, §11

[15] = Lodderomyces parapsilosis, ATCC22019, read-out: MIC
[16] = Nakaseomyces glabratus, ATCC90030, read-out: MIC
[17] = Pichia kudriavzevii, ATCC14243, read-out: MFC
[18] = Pichia kudriavzevii, ATCC14243, read-out: MIC

MIC [1] [µg/mL] | MIC [2] [µg/mL] | MIC [3] [µg/mL] | MIC [4] [µg/mL] | MIC [5] [µg/mL] | MIC [6, 15] [µg/mL] | MIC [7, 16] [µg/mL] | MIC ([8]; ATCC10231, read-out: MIC) [µg/mL] | MIC [9, 18] [µg/mL] | MIC ([10]; ATCC2091, read-out: MIC) [µg/mL] | MIC [11] [µg/mL] | MIC [13] [µg/mL] | SMILES | melting point [°C] | antifungal activity in words [12] | antibacterial activity in words [14] | further results
62.5 (≈ 179 µM) |  |  |  |  |  |  |  |  |  |  |  | CC1(C)S[C@@H]2[C@H](NC(=O)[C@H](N)c3ccccc3)C(=O)N2[C@H]1C(=O)O [APC, ampicillin, reference compound] |  |  |  | 
15.6 (≈ 36.8 µM) | 0.49 (≈ 1.15 µM) | 31.2 (≈ 73.6 µM) | 0.24 (≈ 0.566 µM) | 0.98 (≈ 2.31 µM) |  |  |  |  |  |  |  | CO/N=C(\C(=O)N[C@@H]1C(=O)N2C(C(=O)O)=C(COC(N)=O)CS[C@H]12)c1ccco1 [CFX, cefuroxime, reference compound] |  |  |  | 
> 1000 | 500 (≈ 1910 µM) | > 1000 | 1000 (≈ 3820 µM) | 1000 (≈ 3820 µM) | > 1000 | > 1000 | 1000 (≈ 3820 µM) | 1000 (≈ 3820 µM) | > 1000 | > 1000 | > 1000 | NNC(=O)c1ccccc1I [Compound 4, 2-iodobenzohydrazide] | 182 to 189 | mild activity or were inactive |  | MBC [2]: > 1000 µg/mL; MFC ([8]; ATCC10231, read-out: MFC): > 1000 µg/mL; MFC [9, 17]: > 1000 µg/mL; MBC [4]: > 1000 µg/mL; MBC [5]: > 1000 µg/mL
1000 (≈ 2430 µM) | 500 (≈ 1220 µM) | > 1000 | 125 (≈ 304 µM) | 1000 (≈ 2430 µM) | > 1000 | > 1000 | 1000 (≈ 2430 µM) | > 1000 | > 1000 | > 1000 | > 1000 | O=C(N/N=C/c1cccc([N+](=O)[O-])c1O)c1ccccc1I [Compound 7, N-[(2-hydroxy-3-nitrophenyl)methylidene]-2-iodobenzohydrazide] | 240 to 245 | mild activity or were inactive |  | MBC [2]: > 1000 µg/mL; MFC ([8]; ATCC10231, read-out: MFC): > 1000 µg/mL; MBC [4]: 1000 µg/mL (≈ 2430 µM); MBC [1]: > 1000 µg/mL; MBC [5]: > 1000 µg/mL
 |  |  |  |  |  |  |  |  |  |  |  | O=C(N/N=C/c1ccccc1O)c1cccc(I)c1 [Compound 16, N-[(2-hydroxyphenyl)methylidene]-3-iodobenzohydrazide] | 201 to 203 |  | no activity | 
 |  |  |  |  |  |  |  |  |  |  |  | O=C(N/N=C/c1cccc([N+](=O)[O-])c1O)c1ccc(I)cc1 [Compound 22, N-[(2-hydroxy-3-nitrophenyl)methylidene]-4-iodobenzohydrazide] | 198 to 202 | no antifungal activity | No antimicrobial effect | 
 |  |  |  |  |  |  |  |  |  |  |  | C[C@@H]1[C@H](O)[C@@H](C)/C=C/C=C/CC/C=C/C=C/C=C/C=C/C(O[C@H]2O[C@H](C)[C@@H](O)[C@H](N)[C@@H]2O)CC2O[C@](O)(CC(O)C(O)CCC(O)CC(O)CC(O)CC(=O)O[C@H]1C)CC(O)C2C(=O)O (stereo partly drawn) [NY*, nystatin, reference compound] |  |  |  | MFC [6]: 0.48 µg/mL (≈ 0.518 µM); MFC/MIC [6]: 2; MIC [6]: 0.24 µg/mL (≈ 0.259 µM); MFC [7]: 0.48 µg/mL (≈ 0.518 µM); MFC/MIC [7]: 2; MIC [7]: 0.24 µg/mL (≈ 0.259 µM); MFC [8]: 0.48 µg/mL (≈ 0.518 µM); MFC/MIC [8]: 1; MIC [8]: 0.48 µg/mL (≈ 0.518 µM); MFC [9]: 0.24 µg/mL (≈ 0.259 µM); MFC/MIC [9]: 1; MIC [9]: 0.24 µg/mL (≈ 0.259 µM); MFC [10]: 0.24 µg/mL (≈ 0.259 µM); MFC/MIC [10]: 1; MIC [10]: 0.24 µg/mL (≈ 0.259 µM)

SMILES | MIC [1] [µg/mL] | MIC [2] [µg/mL] | MIC [3] [µg/mL] | MIC [4] [µg/mL] | MIC [5] [µg/mL] | MIC [6, 15] [µg/mL] | MIC [7, 16] [µg/mL] | MIC ([8]; ATCC10231, read-out: MIC) [µg/mL] | MIC [9, 18] [µg/mL] | MIC ([10]; ATCC2091, read-out: MIC) [µg/mL] | MIC [11] [µg/mL] | MIC [13] [µg/mL] | melting point [°C] | antifungal activity in words [12] | antibacterial activity in words [14] | further results
CCOc1cccc(/C=N/NC(=O)c2ccccc2I)c1O [Compound 10, N-[(3-ethoxy-2-hydroxyphenyl)methylidene]-2-iodobenzohydrazide] | > 1000 | > 1000 | > 1000 | > 1000 | > 1000 | > 1000 | 1000 (≈ 2440 µM) | > 1000 | 1000 (≈ 2440 µM) | > 1000 | > 1000 | > 1000 | 167 to 170 | mild activity or were inactive | no antimicrobial effect | MFC ([7]; Nakaseomyces glabratus, ATCC90030, read-out: MFC): > 1000 µg/mL; MFC [9, 17]: > 1000 µg/mL

— publication PMC11356900, “Synthesis, Structural Properties and Biological Activities of Novel Hydrazones of 2-, 3-, 4-Iodobenzoic Acid” (Molecules, 2024)
